US8178133B2, “Magnesium compositions and uses thereof” (Magceutics, Inc., priority 2007, dated 2012)

What was measured:
[1] = test system: aging rats; test: Novel object recognition test in rats; type: in vivo, Sprague-Dawley rats
[2] = test system: young and aging/aged rats; test: Elevated T-maze test, spatial working memory; type: in vivo, Sprague Dawley (SD) rats; details: MgCl2 diet
Experimental: Twenty 2-month old, male Sprague Dawley (SD) rats were housed in a temperature-controlled room (22° C. to 25° C.) with a dark period from 08:00 pm to 08:00 am daily. […] Over 7 days before the training and trial period began, each rat was handled and habituated to the maze and to Kellogg's Froot Loop cereal.
Each rat underwent a test of one trial, followed by an interval of 10-minutes, followed by another trial, and so on, for a total of 6 trials in one day. In each trial, each rat went through a sample run in the maze, followed by an interval of 15 seconds, followed by a choice run in the maze. In the sample run, the subject rat was forced to go to the left or to the right by the presence of a block, according to a pseudorandom sequence (with an equal number of left turns and right turns, and no more than two consecutive turns in the same direction). As a reward, Froot Loop cereal was available in the food well at the end of the run, regardless of the direction that was taken by virtue of the block. In the choice run, the block that had been present in the preceding sample run was removed, and the rat was allowed to choose to go to the left or to the right. […]
Three groups of animals (young, aging, and magnesium-treated aging rats) were used. […] Spatial working memory was assessed using a T-maze non-matching-to-place task. […] Spatial working memory was first assessed on an elevated T-maze. […]

[3] = test system: mice genetically altered to present symptoms of Alzheimer's disease (AD); test: Modified Morris water maze test in AD mice; type: in vivo; details: AD mice aged 13 months
Experimental: Another group, the control group, of 10 mice that were genetically altered to present symptoms of AD were fed a Control Diet, a diet of normal solid food and water, for 30 days.
The pool used was a pool of water in a circular metal tank (150 cm in diameter and 50 cm in depth) having a water height of 30 cm and a water temperature that was maintained at ˜22° C. The pool was placed in a moderately lit area and surrounded by a black curtain. An acrylic platform (15 cm in diameter) was placed 2 cm below the surface of the water in the middle of one quadrant of the pool, equidistant from the center and the edge of the pool. Outside the pool, a cue was placed so as to be visible to a mouse in the maze, allowing a mouse to use it as a landmark for spatial orientation. The cue remained unchanged throughout the test period.
On the first day of the training and testing period, the water in the pool was transparent, such that the platform was visible. Each mouse was trained to swim towards the platform and to stand on the platform so as not to be submerged in the pool. […] The amount of time the mouse took to find the platform, referred to as “escape latency,” was recorded for each trial.
On the second day of the training and testing period, a small quantity of milk was added to the water in the pool, such that the pool was opaque and the platform was no longer visible. […]

[4] = test system: young (9-month old) and aged (25-month old) rats; details: food containing 2% magnesium oxide for 8 days; cited from earlier work

[Cl-].[Cl-].[Mg+2] [MgCl2]
novel object exploration preference ([1]; aging rats 12-14 months, 6 mg/kg MgCl2 from 8 months of age, single training, 10 minute retention interval): preferentially explored the novel object to the same extent as young rats
novel object exploration preference ([1]; aging rats, single training, 24 hours retention interval): lose there ability to distinguish novel versus familiar objects
novel object exploration preference ([1]; aging rats, two training sessions (spaced training), 24-hour retention interval): retained a high level of preference
spatial working memory, choice accuracy with increased delay ([2]; 2 and 5 min delays): significantly enhanced the performance of the aging rats
percentage of correct choices, learning of non-matching-to-place task ([2]; 15 sec delay): performed significantly better from their first trials

COc1cc2c(cc1OC)C(=O)C(CC1CCN(Cc3ccccc3)CC1)C2 (centres unmarked) [aricept]
effect on learning capacity, comparison with anti-AD drugs [3]: both being better at reducing the effects of AD on learning capacity than aricept

[O]=[Mg] [magnesium oxide]
cognitive function [4]: some sign of improvement of cognitive function

CC12CC3CC(C)(C1)CC(N)(C3)C2 [memantine]
effect on learning capacity, comparison with anti-AD drugs [3]: better at reducing the effects of AD on learning capacity than aricept
